Structures are written as SMILES.

From paper PMC10280043 (RSC Advances, 2023) come the findings set out here.

The target in one assay is hCAII (Homo sapiens, UniProt P00918). As to the kind of experiment: Carbonic anhydrase inhibition assay, hCAII. Type of assay: biochemical.
A further assay addresses hCAIX (Homo sapiens, UniProt Q16790). The experiment in a line: biochemical.
The target of the next assay is hCAXII (Homo sapiens, UniProt O43570). As to the kind of experiment: Carbonic anhydrase inhibition assay, hCAXII. The assay is classed as biochemical.
Sequence of hCAXII (O43570 25-354): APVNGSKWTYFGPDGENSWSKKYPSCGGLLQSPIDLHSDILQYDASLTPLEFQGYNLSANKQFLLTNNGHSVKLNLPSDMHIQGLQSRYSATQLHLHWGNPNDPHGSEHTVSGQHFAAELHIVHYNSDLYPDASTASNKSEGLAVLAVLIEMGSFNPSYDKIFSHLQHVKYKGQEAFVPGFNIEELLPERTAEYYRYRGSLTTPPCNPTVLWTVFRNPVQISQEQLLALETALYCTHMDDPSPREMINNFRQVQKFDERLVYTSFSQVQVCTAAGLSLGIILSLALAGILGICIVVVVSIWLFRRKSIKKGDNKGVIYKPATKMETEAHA

Broadly, the IC50 is the point on the concentration scale where inhibition reaches its midpoint. Read a low IC50 as higher potency. Consider `NS(=O)(=O)c1ccc(N2N=C(c3ccccc3O)CC2c2ccc(Cl)cc2)cc1` (stereo not drawn) [4c, 4-(5-(4-Chlorophenyl)-3-(2-hydroxyphenyl)-4,5-dihydro-1H-pyrazol-1-yl)benzene sulfonamide], for which the results for the IC50 on hCAII, on hCAIX and on hCAXII were 1.2 ± 0.4 µM, 7.08 ± 0.4 µM and 2.87 ± 0.02 µM, respectively.

With `Cc1ccc(C2CC(c3cc(Br)ccc3O)=NN2c2ccc(S(N)(=O)=O)cc2)cc1` (stereo not drawn) [4f, 4-(3-(5-Bromo-2-hydroxyphenyl)-5-(p-tolyl)-4,5-dihydro-1H-pyrazol-1-yl)benzene sulfonamide], the 50% inhibitory concentration (IC50) on hCAIX was determined as 0.24 ± 0.08 µM; at hCAXII, 6.97 ± 0.14 µM.

As to `COc1cccc(C2CC(c3cc(Br)ccc3O)=NN2c2ccc(S(N)(=O)=O)cc2)c1` (stereo not drawn) [4g, 4-(3-(5-Bromo-2-hydroxyphenyl)-5-(3-methoxyphenyl)-4,5-dihydro-1H-pyrazol-1-yl)benzene sulfonamide], the IC50 at hCAII was 8.26 ± 0.99 µM; at hCAIX it was 5.28 ± 0.69 µM; on hCAXII, 0.12 ± 0.07 µM.

With `NS(=O)(=O)c1ccc(N2N=C(c3cc(Br)ccc3O)CC2c2ccc(Br)cc2)cc1` (stereo not drawn) [4h, 4-(3-(5-Bromo-2-hydroxyphenyl)-5-(4-bromophenyl)-4,5-dihydro-1H-pyrazol-1-yl)benzene sulfonamide], the IC50 came to 17.2 ± 1.77 µM on hCAII, 0.26 ± 0.04 µM at hCAIX and 0.38 ± 0.1 µM on hCAXII.

On to `COc1cccc(C2CC(c3cc(Cl)cc(Cl)c3O)=NN2c2ccc(S(N)(=O)=O)cc2)c1` (stereo not drawn) [4i, 4-(3-(3,5-Dichloro-2-hydroxyphenyl)-5-(3-methoxyphenyl)-4,5-dihydro-1H-pyrazol-1-yl)benzene sulfonamide], for which the values for the IC50 on hCAII, on hCAIX and against hCAXII were 8.15 ± 0.19 µM, 4.51 ± 0.22 µM and 1.6 ± 0.01 µM, respectively.

Turning to `Cc1ccc(C2CC(c3ccc(F)cc3O)=NN2c2ccc(S(N)(=O)=O)cc2)cc1` (stereo not drawn) [4j, 4-(3-(4-Fluoro-2-hydroxyphenyl)-5-(p-tolyl)-4,5-dihydro-1H-pyrazol-1-yl)benzene sulfonamide], the IC50 against hCAII was 0.39 ± 0.05 µM; against hCAIX it was 0.15 ± 0.07 µM; against hCAXII, 0.28 ± 0.05 µM.

For `COc1ccccc1C1CC(c2ccc(F)cc2O)=NN1c1ccc(S(N)(=O)=O)cc1` (stereo not drawn) [4k, 4-(3-(4-Fluoro-2-hydroxyphenyl)-5-(2-methoxyphenyl)-4,5-dihydro-1H-pyrazol-1-yl)benzene sulfonamide], 1 ± 0.09 µM corresponded to half-maximal inhibition at hCAXII (IC50).
